Entries after “also recorded” stand apart in the source; their conditions may differ.
Columns and labels:
A549CK8 = test: Cell viability, A549CK8 lung cancer cells; format: cell-based, human; details: A549CK8, Lung
Ovcar3 = test: Cell viability, Ovcar3 ovary cancer cells; format: cell-based
H2009 = test: Cell viability, H2009 lung cancer cells; format: cell-based, human; details: H2009, Lung
DLD1 = test: Cell viability, DLD1 colon cancer cells; format: cell-based, human; details: DLD1, Colon
miapac = test: Cell viability, miapac pancreatic cancer cells; format: cell-based, human; details: miapac, Pancrease
AsPC-1 = test: Cell viability, AsPC-1 pancreatic cancer cells; format: cell-based, human
HKE3 = test: Cell viability, HKE3 colon cancer cells; format: cell-based, human; details: HKE3, Colon
H2122 = test: Cell viability, H2122 lung cancer cells; format: cell-based, human
Heb46 = test: Cell viability, Heb46 kidney cells; format: cell-based
CT116P53 = test: Cell viability, CT116P53 colon cancer cells; format: cell-based, human; details: CT116P53, Colon
H2087 = test: Cell viability, H2087 lung cancer cells; format: cell-based, human
H1395 = test: Cell viability, H1395 lung cancer cells; format: cell-based, human
Capanc-1 = test: Cell viability, Capanc-1 pancreatic cancer cells; format: cell-based, human
H226B cells = test: Cell viability, H226B lung cancer cells; format: cell-based, human; details: for IC50 (−LogM): H226B, Lung
H1299 cells = test: Cell viability, H1299 lung cancer cells; format: cell-based, human
Hct116 = test: Cell viability, Hct116 colon cancer cells; format: cell-based, human
Heb44 = test: Cell viability, Heb44 kidney cells; format: cell-based
H1933 = test: Cell viability, H1933 lung cancer cells; format: cell-based, human; details: H1933, Lung
A549 cells = test: Cell viability, A549 lung cancer cells; format: cell-based, human

Structure (SMILES): O=Cc1cn(Cc2ccc(Cl)cc2)c2ccccc12 [Oncrasin K001, 1H-Indole-3-carboxaldehyde, 1-[(4-chlorophenyl)methyl]-(9CI)]
- IC50 (−LogM) (A549CK8): 5.8 −LogM
- IC50 (−LogM) (Ovcar3): 5.6 −LogM
- IC50 (−LogM) (H2009): >4.5 −LogM
- IC50 (−LogM) (DLD1): >4.5 −LogM
- IC50 (−LogM) (miapac): >4.5 −LogM
- IC50 (−LogM) (AsPC-1; ASPC1, Pancrease): 5.5 −LogM
- IC50 (AsPC-1; K-Ras G12D mutation, read-out: IC50, AsPC-1): 40 nM
- IC50 (−LogM) (HKE3; first HKE3 line): 6.4 −LogM
- IC50 (−LogM) (HKE3; second HKE3 line): 6 −LogM
- IC50 (−LogM) (H2122; H2122, Lung): 6.1 −LogM
- IC50 (H2122; K-Ras G12C, read-out: IC50, H2122): 790 nM
- effect on H212 cells (H2122; lung cancer cell line, G12C): highly effective
- IC50 (−LogM) (Heb46): 6.1 −LogM
- IC50 (−LogM) (CT116P53): >4.5 −LogM
- IC50 (−LogM) (H2087; H2087, Lung): >4.5 −LogM
- effect on H2087 cells (H2087; mutant N-Ras): minimal effect
- IC50 (−LogM) (H1395; H1395, Lung): >4.5 −LogM
- effect on H1395 cells (H1395; wild-type Ras): minimal effect
- IC50 (Capanc-1; K-Ras G12V mutation, read-out: IC50, Capanc-1): 420 nM
- IC50 (−LogM) (Capanc-1; capanc1, Pancrease): 5 −LogM
- IC50 (−LogM) (H226B cells; first H226B line): 7 −LogM
- IC50 (−LogM) (H226B cells; second H226B line): 5.6 −LogM
- IC50 (H226B cells; Ras status not known, read-out: IC50, H226B cells): 1200 nM
- effect on H226b cells (H226B cells; ras status unknown): effective
- IC50 (−LogM) (H1299 cells; h1299, Lung): >4.5 −LogM
- effect on H1299 cells (H1299 cells; mutant N-Ras, listed as Oncrasin-1): minimal effect; also recorded: not effective
- IC50 (Hct116; G13D mutation in K-Ras, read-out: IC50, HCT116): 3100 nM
- IC50 (−LogM) (Hct116; Hct116, Colon): 5.5 −LogM
- IC50 (−LogM) (Heb44): 8 −LogM
- IC50 (−LogM) (H1933): >4.5 −LogM
- IC50 (−LogM) (A549 cells; A549, Lung): >4.5 −LogM
- IC50 (A549 cells; K-Ras G12S, read-out: IC50, A549 cells): 1580 nM
